According to patent US20240270751A1, “Pyrazolopyridinone Compounds” (BeiGene Ltd., priority 2021, published 2024):

How the values were obtained:
DGKζ = DGKζ (Homo sapiens (Human), UniProt Q13574); assay: Biochemical DGK IC50 assay, DGKζ ADP-Glo assay; conditions: 0.5 nM enzyme, 140 μM ATP, 80 μM DAG; read-out: DGKζ ADP-Glo assay IC50
Summary of the method: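 Full-length human DGKζ, His-TEV tagged and purified from baculovirus-infected Sf9 cells, assayed by ADP-Glo with DAG/PS lipid micelle substrate prepared in 25 mM HEPES pH 7.0 with octyl glucoside. Final compound concentrations spanned 1.55–10000 nM or 23.3–150000 nM.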

DGKα = DGKα (Homo sapiens (Human), UniProt P23743); assay: Biochemical DGK IC50 assay, DGKα ADP-Glo assay; conditions: 7.5 nM enzyme, 140 μM ATP, 80 μM DAG
Summary of the method: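 ADP-Glo read-out with full-length DGKα on DAG/PS lipid micelle substrate in 25 mM HEPES pH 7.0, 0.5 mM EDTA, 160 mM octyl β-D-glucopyranoside. Compound final concentrations spanned 1.55˜10000 nM or 23.3˜150000 nM.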

Sequence of DGKα (P23743 whole entry): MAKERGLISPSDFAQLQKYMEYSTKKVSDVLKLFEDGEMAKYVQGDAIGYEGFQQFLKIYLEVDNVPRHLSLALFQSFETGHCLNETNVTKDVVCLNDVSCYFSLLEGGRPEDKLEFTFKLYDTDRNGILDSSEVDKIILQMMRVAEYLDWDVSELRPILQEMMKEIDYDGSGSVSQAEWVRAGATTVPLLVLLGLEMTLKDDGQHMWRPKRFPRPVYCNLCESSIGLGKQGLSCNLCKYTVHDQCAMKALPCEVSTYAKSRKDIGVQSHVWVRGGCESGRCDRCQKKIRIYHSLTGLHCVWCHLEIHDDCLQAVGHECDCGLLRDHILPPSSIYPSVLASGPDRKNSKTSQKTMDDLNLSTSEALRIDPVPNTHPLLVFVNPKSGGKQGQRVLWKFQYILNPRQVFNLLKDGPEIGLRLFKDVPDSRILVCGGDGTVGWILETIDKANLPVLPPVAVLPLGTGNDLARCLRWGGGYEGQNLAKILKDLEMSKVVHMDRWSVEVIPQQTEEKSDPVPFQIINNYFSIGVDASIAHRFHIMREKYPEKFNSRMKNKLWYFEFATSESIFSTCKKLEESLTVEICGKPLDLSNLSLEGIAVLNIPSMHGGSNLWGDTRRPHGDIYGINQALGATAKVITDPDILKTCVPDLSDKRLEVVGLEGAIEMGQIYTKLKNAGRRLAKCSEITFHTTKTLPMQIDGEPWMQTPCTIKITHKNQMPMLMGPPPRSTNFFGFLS
Sequence of DGKζ (Q13574 other isoform, or with tags, fused parts or gaps): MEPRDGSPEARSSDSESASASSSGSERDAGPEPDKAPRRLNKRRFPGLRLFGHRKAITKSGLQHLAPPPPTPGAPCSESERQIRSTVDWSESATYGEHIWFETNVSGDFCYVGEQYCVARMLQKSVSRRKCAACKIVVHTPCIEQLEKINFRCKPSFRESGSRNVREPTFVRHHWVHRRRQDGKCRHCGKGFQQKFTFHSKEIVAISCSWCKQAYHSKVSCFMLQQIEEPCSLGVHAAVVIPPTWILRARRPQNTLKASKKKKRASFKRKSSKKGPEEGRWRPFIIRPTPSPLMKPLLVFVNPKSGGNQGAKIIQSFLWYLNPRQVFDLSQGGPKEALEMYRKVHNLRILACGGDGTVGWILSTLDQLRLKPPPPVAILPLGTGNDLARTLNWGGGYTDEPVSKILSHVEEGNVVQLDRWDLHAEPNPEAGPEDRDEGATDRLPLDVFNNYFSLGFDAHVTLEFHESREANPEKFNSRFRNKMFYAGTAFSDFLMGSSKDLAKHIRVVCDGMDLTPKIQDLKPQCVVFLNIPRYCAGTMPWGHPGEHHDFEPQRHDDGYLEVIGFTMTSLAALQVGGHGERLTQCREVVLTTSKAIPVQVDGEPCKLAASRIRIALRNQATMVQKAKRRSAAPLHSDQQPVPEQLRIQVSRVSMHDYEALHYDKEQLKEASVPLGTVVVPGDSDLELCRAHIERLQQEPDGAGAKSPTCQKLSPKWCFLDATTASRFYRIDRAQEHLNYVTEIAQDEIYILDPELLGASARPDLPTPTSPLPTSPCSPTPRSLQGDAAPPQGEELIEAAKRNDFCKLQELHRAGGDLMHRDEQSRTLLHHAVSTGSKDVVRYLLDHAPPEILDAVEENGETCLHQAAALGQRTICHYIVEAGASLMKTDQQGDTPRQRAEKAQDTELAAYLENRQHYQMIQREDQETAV

## CC[C@H]1CN(C(C)c2ccc3cccnc3c2)[C@H](CC)CN1c1cc(=O)n(C)c2cn(CC#N)nc12 (stereo partly shown) [Compound A61]
DGKζ
  IC50: 8.6 nM
DGKα
  IC50: 177 nM

## CC[C@H]1CN(C(C)c2ccc3ccncc3c2)[C@H](CC)CN1c1cc(=O)n(C)c2cn(CC#N)nc12 (stereo partly drawn) [Compound A62, 2-(7-((2S,5R)-2,5-diethyl-4-(1-(isoquinolin-7-yl)ethyl)piperazin-1-yl)-4-methyl-5-oxo-4,5-dihydro-2H-pyrazolo[4,3-b]pyridin-2-yl)acetonitrile]
DGKζ
  IC50: 48 nM
DGKα
  IC50: 40 nM

## CC[C@H]1CN(C(C)c2ccc3cccnc3n2)[C@H](CC)CN1c1cc(=O)n(C)c2cn(CC#N)nc12 (stereo partly drawn) [Compound A63, 2-(7-((2S,5R)-4-(1-(1,8-naphthyridin-2-yl)ethyl)-2,5-diethylpiperazin-1-yl)-4-methyl-5-oxo-4,5-dihydro-2H-pyrazolo[4,3-b]pyridin-2-yl)acetonitrile]
DGKζ
  IC50: 43 nM
DGKα
  IC50: 83 nM

## CC[C@H]1CN(C(C)c2ccc3ncn(C)c3c2)[C@H](CC)CN1c1cc(=O)n(C)c2cn(CC#N)nc12 (stereo partly shown) [Compound A64]
DGKζ
  IC50: 230 nM
DGKα
  IC50: 2800 nM

## CC[C@H]1CN(C(C)c2cccc3c2OC(F)(F)O3)[C@H](CC)CN1c1cc(=O)n(C)c2cn(CC#N)nc12 (stereo partly shown) [Compound A66]
DGKζ
  IC50: 409 nM
DGKα
  IC50: 9840 nM

## CC[C@H]1CN(C(C)c2ccc(F)cc2)[C@H](CC)CN1c1cc(=O)n(C)c2cn(CC#N)nc12 (stereo partly shown) [Compound A67]
DGKζ
  IC50: 130 nM
DGKα
  IC50: 10 nM

## CC[C@@H]1CN(c2cc(=O)n(C)c3cn(CC#N)nc23)[C@@H](CC)CN1Cc1ccc(F)cc1 [Compound A70]
DGKζ
  IC50: 640 nM
DGKα
  IC50: 38 nM

## CC[C@H]1CN(C(C)c2ccc(C(F)(F)F)cc2F)[C@H](CC)CN1c1cc(=O)n(C)c2cn(CC#N)nc12 (stereo partly drawn) [Compound A73, 2-(7-((2S,5R)-2,5-diethyl-4-(1-(2-fluoro-4-(trifluoromethyl)phenyl)ethyl)piperazin-1-yl)-4-methyl-5-oxo-4,5-dihydro-2H-pyrazolo[4,3-b]pyridin-2-yl)acetonitrile]
DGKζ
  IC50: 630 nM
DGKα
  IC50: 630 nM

## CC[C@H]1CN(C(C)c2ccc(F)cn2)[C@H](CC)CN1c1cc(=O)n(C)c2cn(CC#N)nc12 (stereo partly shown) [Compound A74]
DGKζ
  IC50: 830 nM
DGKα
  IC50: 3.8 nM

## CC[C@@H]1CN(c2cc(=O)n(C)c3cn(CC#N)nc23)[C@@H](CC)CN1Cc1ccc(OC(F)(F)F)cc1 [Compound A77]
DGKζ
  IC50: 600 nM
DGKα
  IC50: 9.2 nM

## CC[C@H]1CN(C(C)c2ccc(C(F)(F)F)c(OC)c2)[C@H](CC)CN1c1cc(=O)n(C)c2cn(CC#N)nc12 (stereo partly shown) [Compound A78]
DGKζ
  IC50: 640 nM
DGKα
  IC50: 2410 nM

## CC[C@H]1CN(C(C)c2ccc(F)cc2COC)[C@H](CC)CN1c1cc(=O)n(C)c2cn(CC#N)nc12 (stereo partly drawn) [Compound A79, 2-(7-((2S,5R)-2,5-diethyl-4-(1-(4-fluoro-2-(methoxymethyl)phenyl)ethyl)piperazin-1-yl)-4-methyl-5-oxo-4,5-dihydro-2H-pyrazolo[4,3-b]pyridin-2-yl)acetonitrile]
DGKζ
  IC50: 115 nM
DGKα
  IC50: 2480 nM

## CC[C@H]1CN(C(C)c2ccccc2OC(F)(F)F)[C@H](CC)CN1c1cc(=O)n(C)c2cn(CC#N)nc12 (stereo partly shown) [Compound A80]
DGKζ
  IC50: 663 nM
DGKα
  IC50: > 10000 nM

## CC[C@H]1CN(C(C)c2ccc(OC(C)C)nc2)[C@H](CC)CN1c1cc(=O)n(C)c2cn(CC#N)nc12 (stereo partly shown) [Compound A81]
DGKζ
  IC50: 60 nM
DGKα
  IC50: 461 nM

## CC[C@H]1CN(C(C)c2ccc(F)c(OC)c2)[C@H](CC)CN1c1cc(=O)n(C)c2cn(CC#N)nc12 (stereo partly shown) [Compound A82]
DGKζ
  IC50: 90 nM
DGKα
  IC50: 1020 nM

## CC[C@H]1CN(C(C)c2c(F)cccc2F)[C@H](CC)CN1c1cc(=O)n(C)c2cn(CC#N)nc12 (stereo partly shown) [Compound A83]
DGKζ
  IC50: 170 nM
DGKα
  IC50: 81 nM

## CC[C@H]1CN(C(C)c2ccc(F)cc2C)[C@H](CC)CN1c1cc(=O)n(C)c2cn(CC#N)nc12 (stereo partly drawn) [Compound A84, 2-(7-((2S,5R)-2,5-diethyl-4-(1-(4-fluoro-2-methylphenyl)ethyl)piperazin-1-yl)-4-methyl-5-oxo-4,5-dihydro-2H-pyrazolo[4,3-b]pyridin-2-yl)acetonitrile]
DGKζ
  IC50: 128 nM
DGKα
  IC50: 2890 nM

## CC[C@H]1CN(C(C)c2ccc(F)cc2OCCOC)[C@H](CC)CN1c1cc(=O)n(C)c2cn(CC#N)nc12 (stereo partly shown) [Compound A85]
DGKζ
  IC50: 1180 nM
DGKα
  IC50: 5280 nM

## CC[C@H]1CN(C(C)c2ccncc2)[C@H](CC)CN1c1cc(=O)n(C)c2cn(CC#N)nc12 (stereo partly shown) [Compound A86]
DGKζ
  IC50: 1940 nM
DGKα
  IC50: 22 nM

## CC[C@H]1CN(C(C)c2c(F)cncc2F)[C@H](CC)CN1c1cc(=O)n(C)c2cn(CC#N)nc12 (stereo partly shown) [Compound A87]
DGKζ
  IC50: 211 nM
DGKα
  IC50: 114 nM

## CC[C@H]1CN(C(C)c2cnccn2)[C@H](CC)CN1c1cc(=O)n(C)c2cn(CC#N)nc12 (stereo partly shown) [Compound A88]
DGKζ
  IC50: 9440 nM
DGKα
  IC50: 118 nM

## CC[C@H]1CN(C(C)c2ccccc2)[C@H](CC)CN1c1cc(=O)n(C)c2cn(CC#N)nc12 (stereo partly shown) [Compound A89]
DGKζ
  IC50: 296 nM
DGKα
  IC50: 4.3 nM

## CC[C@H]1CN(C(C)c2ccccn2)[C@H](CC)CN1c1cc(=O)n(C)c2cn(CC#N)nc12 (stereo partly shown) [Compound A90]
DGKζ
  IC50: 1900 nM
DGKα
  IC50: 13 nM

## CC[C@H]1CN(C(C)c2ccncc2OC)[C@H](CC)CN1c1cc(=O)n(C)c2cn(CC#N)nc12 (stereo partly shown) [Compound A91]
DGKζ
  IC50: 533 nM
DGKα
  IC50: > 10000 nM

## CC[C@H]1CN(C(C)c2ncccc2COC)[C@H](CC)CN1c1cc(=O)n(C)c2cn(CC#N)nc12 (stereo partly shown) [Compound A93]
DGKζ
  IC50: 3660 nM
DGKα
  IC50: > 10000 nM

## CC[C@H]1CN(C(C)c2c(OC)cc(F)cc2OC)[C@H](CC)CN1c1cc(=O)n(C)c2cn(CC#N)nc12 (stereo partly shown) [Compound A94]
DGKζ
  IC50: 98 nM
DGKα
  IC50: 9130 nM

## CC[C@H]1CN(C(C)c2ccc3nccnc3c2)[C@H](CC)CN1c1cc(=O)n(CCO)c2cn(CC#N)nc12 (stereo partly drawn) [Compound A95, 2-(7-((2S,5R)-2,5-diethyl-4-(1-(quinoxalin-6-yl)ethyl)piperazin-1-yl)-4-(2-hydroxyethyl)-5-oxo-4,5-dihydro-2H-pyrazolo[4,3-b]pyridin-2-yl)acetonitrile]
DGKζ
  IC50: 53 nM
DGKα
  IC50: 12200 nM

## CC[C@H]1CN(C(C)c2ccc3nccnc3c2)[C@H](CC)CN1c1cc(=O)n(CCOC)c2cn(CC#N)nc12 (stereo partly drawn) [Compound A96, 2-(7-((2S,5R)-2,5-diethyl-4-(1-(quinoxalin-6-yl)ethyl)piperazin-1-yl)-4-(2-methoxyethyl)-5-oxo-4,5-dihydro-2H-pyrazolo[4,3-b]pyridin-2-yl)acetonitrile]
DGKζ
  IC50: 255 nM
DGKα
  IC50: > 10000 nM

## CC[C@H]1CN(C(C)c2ccc3nccnc3c2)[C@H](C)CN1c1cc(=O)n(C)c2cn(CC#N)nc12 (stereo partly drawn) [Compound A98, 2-(7-((2S,5R)-2-ethyl-5-methyl-4-(1-(quinoxalin-6-yl)ethyl)piperazin-1-yl)-4-methyl-5-oxo-4,5-dihydro-2H-pyrazolo[4,3-b]pyridin-2-yl)acetonitrile]
DGKζ
  IC50: 410 nM
DGKα
  IC50: 27000 nM

## CC(c1ccc2nccnc2c1)N1C[C@H](C)N(c2cc(=O)n(C)c3cn(CC#N)nc23)C[C@H]1CO (stereo partly drawn) [Compound A99, 2-(7-((2S,5S)-5-(hydroxymethyl)-2-methyl-4-(1-(quinoxalin-6-yl)ethyl)piperazin-1-yl)-4-methyl-5-oxo-4,5-dihydro-2H-pyrazolo[4,3-b]pyridin-2-yl)acetonitrile]
DGKζ
  IC50: 2790 nM
DGKα
  IC50: > 10000 nM

## COC[C@@H]1CN(c2cc(=O)n(C)c3cn(CC#N)nc23)[C@@H](C)CN1C(C)c1ccc2nccnc2c1 (stereo partly drawn) [Compound A100, 2-(7-((2S,5S)-5-(methoxymethyl)-2-methyl-4-(1-(quinoxalin-6-yl)ethyl)piperazin-1-yl)-4-methyl-5-oxo-4,5-dihydro-2H-pyrazolo[4,3-b]pyridin-2-yl)acetonitrile]
DGKζ
  IC50: 200 nM
DGKα
  IC50: 3780 nM

## CC(c1ccc2nccnc2c1)N1C[C@H](CO)N(c2cc(=O)n(C)c3cn(CC#N)nc23)C[C@H]1C (stereo partly drawn) [Compound A101, 2-(7-((2R,5R)-2-(hydroxymethyl)-5-methyl-4-(1-(quinoxalin-6-yl)ethyl)piperazin-1-yl)-4-methyl-5-oxo-4,5-dihydro-2H-pyrazolo[4,3-b]pyridin-2-yl)acetonitrile]
DGKζ
  IC50: 707 nM
DGKα
  IC50: > 10000 nM

## CC(c1ccc2nccnc2c1)N1C[C@H](C)N(c2cc(=O)[nH]c3cn(CC#N)nc23)C[C@H]1C (stereo partly drawn) [Compound A102, 2-(7-((2S,5R)-2,5-dimethyl-4-(1-(quinoxalin-6-yl)ethyl)piperazin-1-yl)-5-oxo-4,5-dihydro-2H-pyrazolo[4,3-b]pyridin-2-yl)acetonitrile]
DGKζ
  IC50: 288 nM
DGKα
  IC50: > 10000 nM

## CC[C@H]1CN(C(C)c2cccn(C)c2=O)[C@H](CC)CN1c1cc(=O)n(C)c2cn(CC#N)nc12 (stereo partly shown) [Compound A104]
DGKζ
  IC50: > 10000 nM
DGKα
  IC50: > 10000 nM

## CC[C@H]1CN(C(C)c2cccnc2OC)[C@H](CC)CN1c1cc(=O)n(C)c2cn(CC#N)nc12 (stereo partly shown) [Compound A105]
DGKζ
  IC50: 258 nM
DGKα
  IC50: 8920 nM

## CC[C@H]1CN(C(C)c2ccccc2COC)[C@H](CC)CN1c1cc(=O)n(C)c2cn(CC#N)nc12 (stereo partly shown) [Compound A107]
DGKζ
  IC50: 272 nM
DGKα
  IC50: > 10000 nM

## CC[C@H]1CN(C(C)c2cccc(C(N)=O)c2)[C@H](CC)CN1c1cc(=O)n(C)c2cn(CC#N)nc12 (stereo partly shown) [Compound A108]
DGKζ
  IC50: > 10000 nM
DGKα
  IC50: 3830 nM

## CC[C@H]1CN(C(C)c2cccc(NC(C)=O)c2)[C@H](CC)CN1c1cc(=O)n(C)c2cn(CC#N)nc12 (stereo partly shown) [Compound A109]
DGKζ
  IC50: 7850 nM
DGKα
  IC50: 6170 nM
